Columns and labels:
Format in all cases: cell-based
[1] = tested on: Asaia siamensis SUN03; test: Antimicrobial activity (MIC), Asaia siamensis SUN03; details: potato dextrose broth pH 3.8, visual evaluation; for MIC: read-out: Minimal Inhibitory Concentration (MIC)
[2] = tested on: Saccharomyces cerevisiae SUN06; test: Antimicrobial activity (MIC), Saccharomyces cerevisiae SUN06; details: potato dextrose broth pH 3.8, visual evaluation; for MIC: read-out: Minimal Inhibitory Concentration (MIC)
[3] = tested on: Brettanomyces sp SUN08; test: Antimicrobial activity (MIC), Brettanomyces sp SUN08; details: potato dextrose broth pH 3.8, visual evaluation; for MIC: read-out: Minimal Inhibitory Concentration (MIC)
[4] = tested on: Saccharomyces cerevisiae SUN01; test: Antimicrobial activity (MIC), Saccharomyces cerevisiae SUN01; details: potato dextrose broth pH 3.8, visual evaluation; for MIC: read-out: Minimal Inhibitory Concentration (MIC)
[5] = tested on: Zygosaccharomyces bailli SUN07; test: Antimicrobial activity (MIC), Zygosaccharomyces bailli SUN07; details: potato dextrose broth pH 3.8, visual evaluation; for MIC: read-out: Minimal Inhibitory Concentration (MIC)
[6] = tested on: Zygosaccharomyces bailli SUN02; test: Antimicrobial activity (MIC), Zygosaccharomyces bailli SUN02; details: potato dextrose broth pH 3.8, visual evaluation; for MIC: read-out: Minimal Inhibitory Concentration (MIC)
[7] = tested on: Candida parapsilosis SUN05; test: Antimicrobial activity (MIC), Candida parapsilosis SUN05; details: potato dextrose broth pH 3.8, visual evaluation; for MIC: Lodderomyces parapsilosis, read-out: Minimal Inhibitory Concentration (MIC)
[8] = tested on: Neosartorya fischeri SUN09; test: Antimicrobial activity (MIC), Neosartorya fischeri SUN09; details: potato dextrose broth pH 3.8, visual evaluation; for MIC: Aspergillus fischeri, read-out: Minimal Inhibitory Concentration (MIC)
[9] = tested on: Penicillium paneum SUN04; test: Antimicrobial activity (MIC), Penicillium paneum SUN04; details: potato dextrose broth pH 3.8, visual evaluation; for MIC: read-out: Minimal Inhibitory Concentration (MIC)
[10] = tested on: Byssochlamys nivea SUN10; test: Antimicrobial activity (MIC), Byssochlamys nivea SUN10; details: potato dextrose broth pH 3.8, visual evaluation; for MIC: Paecilomyces niveus, read-out: Minimal Inhibitory Concentration (MIC)
[11] = tested on: Zygosaccharomyces bailii DSM 70834; test: Antimicrobial activity (MIC), Zygosaccharomyces bailii DSM 70834; details: DSM70834, potato dextrose broth pH 3.8, visual evaluation, read-out: Minimal Inhibitory Concentration (MIC)
[12] = tested on: Yarrowia lipolytica DSM 70561; test: Antimicrobial activity (MIC), Yarrowia lipolytica DSM 70561; details: DSM70561, potato dextrose broth pH 3.8, visual evaluation, read-out: Minimal Inhibitory Concentration (MIC)
[13] = tested on: Candida albicans ATCC10231; test: Antimicrobial activity (MIC), Candida albicans ATCC10231; details: potato dextrose broth pH 3.8, visual evaluation, read-out: Minimal Inhibitory Concentration (MIC)
[14] = tested on: Clostridium sporogenes ATCC19404; test: Antimicrobial activity (MIC), Clostridium sporogenes ATCC19404; details: potato dextrose broth pH 3.8, visual evaluation, read-out: Minimal Inhibitory Concentration (MIC)
Procedure: Compounds are dissolved at a concentration of 20 mg/mL using 100% DMSO. • Preculture: yeast and bacteria are plated on potato dextrose agar, resuspended in potato dextrose broth and CFU via OD measurement determined; adjusting CFU of the strain in PDB pH 3.8 • Preculture: for mycel forming fungi spores were directly used after thawing of cryopreserved stocks of known titre • Final titre used for the assay: Yeast strains 5*10^3 CFU/ml, Bacteria 1*10^6 CFU/ml, Fungi (spores) 5*10^4 CFU/ml • Potato dextrose broth pH 3.8 was used as assay matrix • 500 ppm (0.05%) of the compounds were screened (final DMSO 2.5% (v/v)) • Volume: 100 μl in 96-well format • Positive controls: potassium sorbate, sodium benzoate & triclosan • 28° C. to 30° C., static incubation • Incubation time depending on spoilage organism between 2 and 8 days • Visual evaluation (per eye, for fungi with binocular magnification)

[15] = tested on: Byssochlamys fulva DSM 1808; test: Antimicrobial activity (MIC), Byssochlamys fulva DSM 1808; details: Paecilomyces fulvus, DSM1808, potato dextrose broth pH 3.8, visual evaluation, read-out: Minimal Inhibitory Concentration (MIC)
[16] = tested on: Lactobacillus paracasei ssp. paracasei DSM 46331; test: Antimicrobial activity (MIC), Lactobacillus paracasei ssp. paracasei DSM 46331; details: Lacticaseibacillus paracasei, DSM46331, potato dextrose broth pH 3.8, visual evaluation, read-out: Minimal Inhibitory Concentration (MIC)
[17] = tested on: Saccharomyces cerevisiae DSM 2548; test: Antimicrobial activity (MIC), Saccharomyces cerevisiae DSM 2548; details: DSM2548, potato dextrose broth pH 3.8, visual evaluation, read-out: Minimal Inhibitory Concentration (MIC)
[18] = tested on: Enterococcus faecalis ATCC 7080; test: Antimicrobial activity (MIC), Enterococcus faecalis ATCC 7080; details: ATCC7080, potato dextrose broth pH 3.8, visual evaluation, read-out: Minimal Inhibitory Concentration (MIC)
[19] = tested on: Leuconostoc lactis DSM 20202; test: Antimicrobial activity (MIC), Leuconostoc lactis DSM 20202; details: DSM20202, potato dextrose broth pH 3.8, visual evaluation, read-out: Minimal Inhibitory Concentration (MIC)
[20] = tested on: Leuconostoc mesenteroides DSM 20343; test: Antimicrobial activity (MIC), Leuconostoc mesenteroides DSM 20343; details: DSM20343, potato dextrose broth pH 3.8, visual evaluation, read-out: Minimal Inhibitory Concentration (MIC)
[21] = tested on: Dekkera naardenensis CBS 6115; test: Antimicrobial activity (MIC), Dekkera naardenensis CBS 6115; details: Brettanomyces naardenensis, CBS6115, potato dextrose broth pH 3.8, visual evaluation, read-out: Minimal Inhibitory Concentration (MIC)
[22] = tested on: Penicillium expansum DSM 62841; test: Antimicrobial activity (MIC), Penicillium expansum DSM 62841; details: DSM62841, potato dextrose broth pH 3.8, visual evaluation, read-out: Minimal Inhibitory Concentration (MIC)
[23] = tested on: Malassezia furfur DSM 6170; test: Antimicrobial activity (MIC), Malassezia furfur DSM 6170; details: DSM6170, potato dextrose broth pH 3.8, visual evaluation, read-out: Minimal Inhibitory Concentration (MIC)
[24] = tested on: Bacillus subtilis ATCC 6633; test: Antimicrobial activity (MIC), Bacillus subtilis ATCC 6633; details: ATCC6633, potato dextrose broth pH 3.8, visual evaluation, read-out: Minimal Inhibitory Concentration (MIC)
[25] = tested on: Alicyclobacillus acidoterrestris DSM 2498; test: Antimicrobial activity (MIC), Alicyclobacillus acidoterrestris DSM 2498; details: DSM2498, potato dextrose broth pH 3.8, visual evaluation, read-out: Minimal Inhibitory Concentration (MIC)
[26] = tested on: Zygosaccharomyces rouxii DSM 7525; test: Antimicrobial activity (MIC), Zygosaccharomyces rouxii DSM 7525; details: DSM7525, potato dextrose broth pH 3.8, visual evaluation, read-out: Minimal Inhibitory Concentration (MIC)
[27] = tested on: Corynebacterium xerosis DSM 20743; test: Antimicrobial activity (MIC), Corynebacterium xerosis DSM 20743; details: DSM20743, potato dextrose broth pH 3.8, visual evaluation, read-out: Minimal Inhibitory Concentration (MIC)

CCCC(O)CC(=O)OC[C@H]1O[C@@H](O[C@H]2[C@H](O)[C@@H](O)[C@H](OCC(O)CCCCCCCCCCCCC(O)C(=O)O)O[C@@H]2COC(C)=O)[C@H](O)[C@@H](O)[C@@H]1O (stereo partly drawn) [NP-018459]
500 µg/mL: MIC [5] | MIC [8] | MIC [9]
inact.: Minimal Inhibitory Concentration (MIC) [1] | Minimal Inhibitory Concentration (MIC) [2] | Minimal Inhibitory Concentration (MIC) [3] | Minimal Inhibitory Concentration (MIC) [4] | Minimal Inhibitory Concentration (MIC) [6] | Minimal Inhibitory Concentration (MIC) [7] | Minimal Inhibitory Concentration (MIC) [10]

O=C(O)OC[C@H]1O[C@@H](OCC(O)CCCCCCCCCCCCC(O)C(=O)O)[C@H](O)[C@@H](O)[C@@H]1O[C@@H]1O[C@H](CO)[C@@H](O)[C@H](OC(=O)CC(O)CCO)[C@H]1O (stereo partly drawn) [NP-018249]
inact.: Minimal Inhibitory Concentration (MIC) [1] | Minimal Inhibitory Concentration (MIC) [2] | Minimal Inhibitory Concentration (MIC) [3] | Minimal Inhibitory Concentration (MIC) [7] | Minimal Inhibitory Concentration (MIC) [8] | Minimal Inhibitory Concentration (MIC) [9] | Minimal Inhibitory Concentration (MIC) [10]
500 µg/mL: MIC [4] | MIC [5] | MIC [6]

O=C(O)CC(O)CCCCCCCCCCCC(O)CO[C@@H]1O[C@H](COC(=O)O)[C@@H](O[C@@H]2O[C@H](CO)[C@@H](O)[C@H](O)[C@H]2O)[C@H](O)[C@H]1O (stereo partly drawn) [NP-018428]
500 µg/mL: MIC [8]
inact.: Minimal Inhibitory Concentration (MIC) [1] | Minimal Inhibitory Concentration (MIC) [2] | Minimal Inhibitory Concentration (MIC) [3] | Minimal Inhibitory Concentration (MIC) [4] | Minimal Inhibitory Concentration (MIC) [5] | Minimal Inhibitory Concentration (MIC) [6] | Minimal Inhibitory Concentration (MIC) [7] | Minimal Inhibitory Concentration (MIC) [9] | Minimal Inhibitory Concentration (MIC) [10]

CCCC(O)CC(=O)O[C@H]1[C@H](O[C@H]2[C@H](O)[C@@H](O)[C@H](OCC(O)CCCCCCCCCCCCC(O)C(=O)O)O[C@@H]2COC(C)=O)O[C@H](CO)[C@@H](O)[C@@H]1O (stereo partly drawn) [NP-018217]
250 µg/mL: MIC [19]
600 µg/mL: MIC [24]
240 µg/mL: MIC [12] | MIC [17] | MIC [18] | MIC [20] | MIC [21] | MIC [22] | MIC [25] | MIC [26] | MIC [27]
500 µg/mL: MIC [1] | MIC [5]
≤ 31.2 µg/mL: MIC [8] | MIC [9] | MIC [10]
80 µg/mL: MIC [11] | MIC [13] | MIC [14] | MIC [15] | MIC [16] | MIC [23]
≤ 125 µg/mL: MIC [2] | MIC [3] | MIC [4] | MIC [6] | MIC [7]

O=C(O)OC[C@H]1O[C@@H](OCC(O)CCCCCCCCCCC/C=C(\O)C(=O)O)[C@H](O)[C@@H](O)[C@@H]1O[C@@H]1O[C@H](CO)[C@@H](O)[C@H](O)[C@H]1OC(=O)CC(O)CCO (stereo partly drawn) [NP-018756]
500 µg/mL: MIC [7]
16 µg/mL: MIC [25]
≤ 125 µg/mL: MIC [8] | MIC [10]
250 µg/mL: MIC [2] | MIC [3] | MIC [4] | MIC [5] | MIC [6] | MIC [9]
> 500 µg/mL: MIC [1]
600 µg/mL: MIC [19] | MIC [24]

CCCCCC(O)CC(=O)O[C@H]1[C@H](O[C@H]2[C@H](O)[C@@H](O)[C@H](OCC(O)CCCCCCCCCCCCCC(=O)O)O[C@@H]2COC(C)=O)O[C@H](CO)[C@@H](O)[C@@H]1O (stereo partly drawn) [NP-018752]
inact.: Minimal Inhibitory Concentration (MIC) [1] | Minimal Inhibitory Concentration (MIC) [3] | Minimal Inhibitory Concentration (MIC) [4] | Minimal Inhibitory Concentration (MIC) [7] | Minimal Inhibitory Concentration (MIC) [8] | Minimal Inhibitory Concentration (MIC) [9]
500 µg/mL: MIC [2] | MIC [5] | MIC [6] | MIC [10]
4 µg/mL: MIC [25]

O=C(O)OC[C@H]1O[C@@H](OCC(O)CCCCCCCCCCCCC(O)C(=O)O)[C@H](O)[C@@H](O)[C@@H]1O[C@@H]1O[C@H](CO)[C@@H](O)[C@H](O)[C@H]1O (stereo partly drawn) [NP-018243]
inact.: Minimal Inhibitory Concentration (MIC) [1]
≤ 125 µg/mL: MIC [8] | MIC [9]
500 µg/mL: MIC [7]
250 µg/mL: MIC [2] | MIC [3] | MIC [4] | MIC [5] | MIC [6] | MIC [10]

CCCCCCCC(=O)O[C@H]1[C@H](O[C@H]2[C@H](O)[C@@H](O)[C@H](OCC(O)CCCCCCCCCCCCC(O)C(=O)O)O[C@@H]2COC(C)=O)O[C@H](CO)[C@@H](O)[C@@H]1O (stereo partly drawn) [NP-018753]
> 500 µg/mL: MIC [1]
≤ 31.2 µg/mL: MIC [2] | MIC [4] | MIC [5] | MIC [6] | MIC [7] | MIC [8] | MIC [10]
500 µg/mL: MIC [3] | MIC [9]

CCCCCC(O)CC(=O)O[C@@H]1[C@@H](O)[C@H](O[C@H]2[C@H](O)[C@@H](O)[C@H](OCC(O)CCCCCCCCCCCCC(O)C(=O)O)O[C@@H]2COC(C)=O)O[C@H](CO)[C@H]1O (stereo partly drawn) [NP-018218]
500 µg/mL: MIC [2]
inact.: Minimal Inhibitory Concentration (MIC) [1] | Minimal Inhibitory Concentration (MIC) [3] | Minimal Inhibitory Concentration (MIC) [4] | Minimal Inhibitory Concentration (MIC) [5] | Minimal Inhibitory Concentration (MIC) [6] | Minimal Inhibitory Concentration (MIC) [7] | Minimal Inhibitory Concentration (MIC) [8] | Minimal Inhibitory Concentration (MIC) [9] | Minimal Inhibitory Concentration (MIC) [10]

— patent US20260041095A1, “A PRESERVATION METHOD” (AnalytiCon Discovery - Zweigniederlassung der BRAIN Biotech …, priority 2022, published 2026)
